# Results: patent US20240092835A1, “NOVEL PEPTIDES CAPABLE OF ALTERING NK CELL ACTIVITY” (Massachusetts Institute of Technology, priority 2022, published 2024)
# Where no end group is shown, it is not given here.
# Key:
# NKG2A+/NKG2C− NK cells = assay: NK cell activation markers in NKG2A+/NKG2C- NK cells incubated with peptide and K562 expressing HLA-E (inhibition); assay type: cell-based, human; details: for effect on NKG2A+/NKG2C− NK cell inhibition (in words): K562 expressing HLA-E, CD107a, IFNG, TNF, CCL3; for percentage of CCL3+ NK cells / percentage of CD107a+ NK cells / percentage of IFNG+ NK cells / percentage of TNF+ NK cells: NKG2A+/NKG2C- NK cells, K562/HLA-E
# Procedure, shortened: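 Percent-positive cells for NK activation surface markers were measured after NK cells met peptide-treated K562 cells expressing HLA-E. A decrease in that fraction was scored as inhibition and an increase as activation; NKG2A−/NKG2C− cells served as controls.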
# CD94/NKG2A = CD94/NKG2A (Homo sapiens, UniProt P26715+Q13241); assay: Steady-state surface plasmon resonance of peptide-HLA-E complex with CD94/NKG2A; assay type: binding; details: for Binding of peptide-HLA-E complexes to CD94/NKG2A normalized to a theoretical Rmax: steady-state SPR
# Protocol: Binding affinity of novel peptides linked to HLA-E was determined using surface plasmon resonance (SPR), a methodology used to study protein-protein interactions (Tables 15-19). The peptide-HLA-E complex (generated as a single chain trimer) was immobilized on the sensor chip surface and CD94/NKG2A or CD94/NKG2C were flowed over. Steady-state surface plasmon resonance experiments were performed with a Biacore T200 instrument. CD94/NKG2x in HBS-EP+ buffer was injected as analyte in a concentration range of 0.1 μM to 102.4 μM and flow rate of 10 μL/min at 25° C. Data was fit with Prism 9.4 (GraphPad Software Inc; San Diego CA) to a “one site, specific binding” model. Series S CM5 chips were coupled to neutravidin and utilized. Biotinylated pMHC was immobilized at approximately 400 RU. KD values calculated by Biacore software are reported. Rmax, fit values were calculated by Biacore software. Rmax, theoretical values were calculated using the analyte/ligand mass ratio (0.66) multiplied by the amount of ligand coupled to the chip.
# Chain of CD94/NKG2A (P26715 94-233 limits assumed): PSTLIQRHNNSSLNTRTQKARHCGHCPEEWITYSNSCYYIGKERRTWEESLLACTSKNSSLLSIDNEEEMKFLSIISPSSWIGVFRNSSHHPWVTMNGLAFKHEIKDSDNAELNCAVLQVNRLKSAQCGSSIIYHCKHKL
# Chain of CD94/NKG2A (Q13241 32-179 limits assumed): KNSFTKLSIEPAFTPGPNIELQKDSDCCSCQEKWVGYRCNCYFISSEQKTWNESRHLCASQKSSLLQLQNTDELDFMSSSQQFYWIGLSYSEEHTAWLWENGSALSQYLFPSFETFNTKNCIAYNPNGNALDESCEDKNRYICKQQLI
sequence,measurement,setting,value
"VNPGRSLFL [human5, VNPGRSLFL]",effect on NKG2A+/NKG2C− NK cell inhibition (in words),NKG2A+/NKG2C− NK cells; listed as SEQ ID NO. 3,no or minimal effect
same,effect on NKG2A+/NKG2C− NK cell inhibition (in words),NKG2A+/NKG2C− NK cells; listed as h5,no effect
same,percentage of CCL3+ NK cells,NKG2A+/NKG2C− NK cells; Trial 1,51.6%
same,percentage of CD107a+ NK cells,NKG2A+/NKG2C− NK cells; Trial 1,36.8%
same,percentage of IFNG+ NK cells,NKG2A+/NKG2C− NK cells; Trial 1,16.9%
same,percentage of TNF+ NK cells,NKG2A+/NKG2C− NK cells; Trial 1,7.26%
same,percentage of CCL3+ NK cells,NKG2A+/NKG2C− NK cells; Trial 2,71.6%
same,percentage of CD107a+ NK cells,NKG2A+/NKG2C− NK cells; Trial 2,48.4%
same,percentage of IFNG+ NK cells,NKG2A+/NKG2C− NK cells; Trial 2,28.8%
same,percentage of TNF+ NK cells,NKG2A+/NKG2C− NK cells; Trial 2,14.6%
same,percentage of CCL3+ NK cells,NKG2A+/NKG2C− NK cells; Trial 3,55.3%
same,percentage of CD107a+ NK cells,NKG2A+/NKG2C− NK cells; Trial 3,43.1%
same,percentage of IFNG+ NK cells,NKG2A+/NKG2C− NK cells; Trial 3,30.8%
same,percentage of TNF+ NK cells,NKG2A+/NKG2C− NK cells; Trial 3,19.4%
same,percentage of CCL3+ NK cells,NKG2A+/NKG2C− NK cells; Trial 4,40.9%
same,percentage of CD107a+ NK cells,NKG2A+/NKG2C− NK cells; Trial 4,33.4%
same,percentage of IFNG+ NK cells,NKG2A+/NKG2C− NK cells; Trial 4,17.9%
same,percentage of TNF+ NK cells,NKG2A+/NKG2C− NK cells; Trial 4,10.7%
same,percentage of CCL3+ NK cells,NKG2A+/NKG2C− NK cells; Trial 5,44.2%
same,percentage of CD107a+ NK cells,NKG2A+/NKG2C− NK cells; Trial 5,30.4%
same,percentage of IFNG+ NK cells,NKG2A+/NKG2C− NK cells; Trial 5,16.5%
same,percentage of TNF+ NK cells,NKG2A+/NKG2C− NK cells; Trial 5,7.74%
same,percentage of CCL3+ NK cells,NKG2A+/NKG2C− NK cells; Trial 6,33.1%
same,percentage of CD107a+ NK cells,NKG2A+/NKG2C− NK cells; Trial 6,26%
same,percentage of IFNG+ NK cells,NKG2A+/NKG2C− NK cells; Trial 6,10.5%
same,percentage of TNF+ NK cells,NKG2A+/NKG2C− NK cells; Trial 6,6.36%
same,binding of peptide-HLA-E complex to CD94/NKG2A normalized to a fitted Rmax,CD94/NKG2A; CD94/NKG2A concentration 0 μM,−0.002
same,binding of peptide-HLA-E complex to CD94/NKG2A normalized to a fitted Rmax,CD94/NKG2A; CD94/NKG2A concentration 0.1 μM,0.177
same,binding of peptide-HLA-E complex to CD94/NKG2A normalized to a fitted Rmax,CD94/NKG2A; CD94/NKG2A concentration 0.2 μM,0.288
same,binding of peptide-HLA-E complex to CD94/NKG2A normalized to a fitted Rmax,CD94/NKG2A; CD94/NKG2A concentration 0.4 μM,0.434
same,binding of peptide-HLA-E complex to CD94/NKG2A normalized to a fitted Rmax,CD94/NKG2A; CD94/NKG2A concentration 0.8 μM,0.593
same,binding of peptide-HLA-E complex to CD94/NKG2A normalized to a fitted Rmax,CD94/NKG2A; CD94/NKG2A concentration 1.6 μM,0.739
same,binding of peptide-HLA-E complex to CD94/NKG2A normalized to a fitted Rmax,CD94/NKG2A; CD94/NKG2A concentration 3.2 μM,0.863
same,binding of peptide-HLA-E complex to CD94/NKG2A normalized to a fitted Rmax,CD94/NKG2A; CD94/NKG2A concentration 6.4 μM,0.955
same,binding of peptide-HLA-E complex to CD94/NKG2A normalized to a fitted Rmax,CD94/NKG2A; CD94/NKG2A concentration 12.8 μM,1.018
same,binding of peptide-HLA-E complex to CD94/NKG2A normalized to a fitted Rmax,CD94/NKG2A; CD94/NKG2A concentration 25.6 μM,1.059
same,binding of peptide-HLA-E complex to CD94/NKG2A normalized to a fitted Rmax,CD94/NKG2A; CD94/NKG2A concentration 51.2 μM,1.081
same,binding of peptide-HLA-E complex to CD94/NKG2A normalized to a fitted Rmax,CD94/NKG2A; CD94/NKG2A concentration 102.4 μM,1.105
same,Binding of peptide-HLA-E complexes to CD94/NKG2A normalized to a theoretical Rmax,CD94/NKG2A; CD94/NKG2A analyte concentration 0.000 μM,−0.001
same,Binding of peptide-HLA-E complexes to CD94/NKG2A normalized to a theoretical Rmax,CD94/NKG2A; CD94/NKG2A analyte concentration 0.100 μM,0.074
same,Binding of peptide-HLA-E complexes to CD94/NKG2A normalized to a theoretical Rmax,CD94/NKG2A; CD94/NKG2A analyte concentration 0.200 μM,0.120
same,Binding of peptide-HLA-E complexes to CD94/NKG2A normalized to a theoretical Rmax,CD94/NKG2A; CD94/NKG2A analyte concentration 0.400 μM,0.181
same,Binding of peptide-HLA-E complexes to CD94/NKG2A normalized to a theoretical Rmax,CD94/NKG2A; CD94/NKG2A analyte concentration 0.800 μM,0.247
same,Binding of peptide-HLA-E complexes to CD94/NKG2A normalized to a theoretical Rmax,CD94/NKG2A; CD94/NKG2A analyte concentration 1.600 μM,0.308
same,Binding of peptide-HLA-E complexes to CD94/NKG2A normalized to a theoretical Rmax,CD94/NKG2A; CD94/NKG2A analyte concentration 3.200 μM,0.360
same,Binding of peptide-HLA-E complexes to CD94/NKG2A normalized to a theoretical Rmax,CD94/NKG2A; CD94/NKG2A analyte concentration 6.400 μM,0.398
same,Binding of peptide-HLA-E complexes to CD94/NKG2A normalized to a theoretical Rmax,CD94/NKG2A; CD94/NKG2A analyte concentration 12.800 μM,0.425
same,Binding of peptide-HLA-E complexes to CD94/NKG2A normalized to a theoretical Rmax,CD94/NKG2A; CD94/NKG2A analyte concentration 25.600 μM,0.442
same,Binding of peptide-HLA-E complexes to CD94/NKG2A normalized to a theoretical Rmax,CD94/NKG2A; CD94/NKG2A analyte concentration 51.200 μM,0.451
same,Binding of peptide-HLA-E complexes to CD94/NKG2A normalized to a theoretical Rmax,CD94/NKG2A; CD94/NKG2A analyte concentration 102.400 μM,0.461
